Reference: patent US8119681B2, “2-[1-phenyl-5-hydroxy or methoxy-4alpha-methyl-hexahydrocyclopenta [ƒ]indazole-5-YL]ethyl phenyl derivatives as glucocorticoid receptor ligands” (Merck Sharp & Dohme Corp., priority 2006, dated 2012)

Target: T1, human GR (Homo sapiens, UniProt P04150)
T1 sequence (P04150 1-777): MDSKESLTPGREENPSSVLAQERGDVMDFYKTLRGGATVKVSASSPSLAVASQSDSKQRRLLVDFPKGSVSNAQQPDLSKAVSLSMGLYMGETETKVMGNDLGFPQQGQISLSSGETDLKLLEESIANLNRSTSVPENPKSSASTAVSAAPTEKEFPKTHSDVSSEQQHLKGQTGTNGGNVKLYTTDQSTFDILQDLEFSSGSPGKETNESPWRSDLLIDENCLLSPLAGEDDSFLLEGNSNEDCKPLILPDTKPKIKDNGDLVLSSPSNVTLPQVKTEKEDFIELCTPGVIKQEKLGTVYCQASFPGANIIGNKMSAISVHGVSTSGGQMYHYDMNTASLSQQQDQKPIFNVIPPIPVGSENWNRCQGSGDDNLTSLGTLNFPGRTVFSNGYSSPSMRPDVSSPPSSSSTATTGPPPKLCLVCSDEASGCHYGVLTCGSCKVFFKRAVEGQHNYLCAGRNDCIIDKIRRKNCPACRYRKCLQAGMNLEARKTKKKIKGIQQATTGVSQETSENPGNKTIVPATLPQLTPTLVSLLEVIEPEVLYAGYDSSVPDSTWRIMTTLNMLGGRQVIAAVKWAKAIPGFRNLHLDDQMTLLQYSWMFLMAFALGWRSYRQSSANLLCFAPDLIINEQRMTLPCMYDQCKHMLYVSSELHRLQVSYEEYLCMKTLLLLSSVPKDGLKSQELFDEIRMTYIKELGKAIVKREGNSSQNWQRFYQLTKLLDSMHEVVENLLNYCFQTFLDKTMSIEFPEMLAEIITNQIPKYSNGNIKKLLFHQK
Experiment: Transrepression Assay (GITAR), TNFα-β-lactamase reporter gene in U937 cells
Format: cell-based
Set-up: U937 cells contain an endogenous glucocorticoid receptor (GR); endogenous in cells; host or cells: U937 cells stably transfected with the TNF-α promoter/β-lactamase reporter only
Conditions: U-937; 100 nM dexamethasone = 100% activity; read-out: maximal activity in the transrepression assay
Summary of the method: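 Reporter readout used CCF2-AM loading for 70–90 min at room temperature after overnight (~18 h, 37 °C) PMA (5 ng/ml final) and LPS (100 ng/ml final) stimulation of compound-treated (30–45 min) TNFα-β-lactamase U937 cells expressing native GR. Activity was normalised to 100 nM dexamethasone repression.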

SMILES | Emax [%]
CC(=O)NCc1ccccc1CC[C@]1(O)CCC2=Cc3c(cnn3-c3ccc(F)cc3)C[C@@]21C [Example 105, N-(2-{2-[(4αS,5R)-1-(4-fluorophenyl)-5-hydroxy-4α-methyl-1,4,4α,5,6,7-hexahydrocyclopenta[f]indazol-5-yl]ethyl}benzyl)acetamide] | 5 to 100
CCNC(=O)Cc1ccccc1CC[C@]1(O)CCC2=Cc3c(cnn3-c3ccc(F)cc3)C[C@@]21C [Example 106, N-ethyl-2-(2-{2-[(4αS,5R)-1-(4-fluorophenyl)-5-hydroxy-4α-methyl-1,4,4α,5,6,7-hexahydrocyclopenta[f]indazol-5-yl]ethyl}phenyl)acetamide] | 5 to 100
CN(C)C(=O)Cc1ccccc1CC[C@]1(O)CCC2=Cc3c(cnn3-c3ccc(F)cc3)C[C@@]21C [Example 108, 2-(2-{2-[(4αS,5R)-1-(4-fluorophenyl)-5-hydroxy-4α-methyl-1,4,4α,5,6,7-hexahydrocyclopenta[f]indazol-5-yl]ethyl}phenyl)-N,N-dimethylacetamide] | 5 to 100
C[C@]12Cc3cnn(-c4ccc(F)cc4)c3C=C1CC[C@@]2(O)CCc1ccccc1CC(=O)NC1CC1 [Example 109, N-cyclopropyl-2-(2-{2-[(4αS,5R)-1-(4-fluorophenyl)-5-hydroxy-4α-methyl-1,4,4α,5,6,7-hexahydrocyclopenta[f]indazol-5-yl]ethyl}phenyl)acetamide] | 5 to 100
C[C@]12Cc3cnn(-c4ccc(F)cc4)c3C=C1CC[C@@]2(O)CCc1cccc(F)c1N1CCC1=O [Example 110, 1-(2-fluoro-6-{2-[(4αS,5R)-1-(4-fluorophenyl)-5-hydroxy-4α-methyl-1,4,4α,5,6,7-hexahydrocyclopenta[f]indazol-5-yl]ethyl}phenyl)azetidin-2-one] | 5 to 100
C[C@]12Cc3cnn(-c4ccc(F)cc4)c3C=C1CC[C@@]2(O)CCc1ccccc1N1CCCC1=O [Example 111, 1-(2-{2-[(4αS,5R)-1-(4-fluorophenyl)-5-hydroxy-4α-methyl-1,4,4α,5,6,7-hexahydrocyclopenta[f]indazol-5-yl]ethyl}phenyl)pyrrolidin-2-one] | 5 to 100
C[C@]12Cc3cnn(-c4ccc(F)cc4)c3C=C1CC[C@@]2(O)CCc1cc(F)ccc1N [Example 112, (4αS,5R)-5-[2-(2-amino-5-fluorophenyl)ethyl]-1-(4-fluorophenyl)-4α-methyl-1,4,4α,5,6,7-hexahydrocyclopenta[f]indazol-5-ol] | 5 to 100
C[C@]12Cc3cnn(-c4ccc(F)cc4)c3C=C1CC[C@@]2(O)CCc1ccccc1NS(C)(=O)=O [Example 115, N-(2-{2-[(4αS,5R)-1-(4-fluorophenyl)-5-hydroxy-4α-methyl-1,4,4α,5,6,7-hexahydrocyclopenta[f]indazol-5-yl]ethyl}phenyl)methanesulfonamide] | 5 to 100
C[C@]12Cc3cnn(-c4ccc(F)cc4)c3C=C1CC[C@@]2(O)CCc1cccc(F)c1NS(=O)(=O)CC(F)(F)F [Example 116, 2,2,2-trifluoro-N-(2-fluoro-6-{2-[(4αS,5R)-1-(4-fluorophenyl)-5-hydroxy-4α-methyl-1,4,4α,5,6,7-hexahydrocyclopenta[f]indazol-5-yl]ethyl}phenyl)ethanesulfonamide] | 5 to 100
CN(C)S(=O)(=O)Nc1ccc(F)cc1CC[C@]1(O)CCC2=Cc3c(cnn3-c3ccc(F)cc3)C[C@@]21C [Example 117, N′-(4-fluoro-2-{2-[(4αS,5R)-1-(4-fluorophenyl)-5-hydroxy-4α-methyl-1,4,4α,5,6,7-hexahydrocyclopenta[f]indazol-5-yl]ethyl}phenyl)-N,N-dimethylsulfamide] | 5 to 100
C[C@]12Cc3cnn(-c4ccc(F)cc4)c3C=C1CC[C@@]2(O)CCc1ccccc1NS(=O)(=O)CC(F)(F)F [Example 118, 2,2,2-trifluoro-N-(2-{2-[(4αS,5R)-1-(4-fluorophenyl)-5-hydroxy-4α-methyl-1,4,4α,5,6,7-hexahydrocyclopenta[f]indazol-5-yl]ethyl}phenyl)ethanesulfonamide] | 5 to 100
C[C@]12Cc3cnn(-c4ccc(F)cc4)c3C=C1CC[C@@]2(O)CCc1cc(F)ccc1NS(=O)(=O)CC(F)(F)F [Example 119, 2,2,2-trifluoro-N-(4-fluoro-2-{2-[(4αS,5R)-1-(4-fluorophenyl)-5-hydroxy-4α-methyl-1,4,4α,5,6,7-hexahydrocyclopenta[f]indazol-5-yl]ethyl}phenyl)ethanesulfonamide] | 5 to 100
CC(C)S(=O)(=O)c1ccccc1CC[C@]1(O)CCC2=Cc3c(cnn3-c3ccc(F)cc3)C[C@@]21C [Example 120, (4αS,5R)-1-(4-fluorophenyl)-5-{2-[2-(isopropylsulfonyl)phenyl]ethyl}-4α-methyl-1,4,4α,5,6,7-hexahydrocyclopenta[f]indazol-5-ol] | 5 to 100
COC(=O)Nc1ccccc1CC[C@]1(O)CCC2=Cc3c(cnn3-c3ccc(F)cc3)C[C@@]21C [Example 121, methyl (2-{2-[(4αS,5R)-1-(4-fluorophenyl)-5-hydroxy-4α-methyl-1,4,4α,5,6,7-hexahydrocyclopenta[f]indazol-5-yl]ethyl}phenyl)carbamate] | 5 to 100
CCOC(=O)Nc1c(F)cccc1CC[C@]1(O)CCC2=Cc3c(cnn3-c3ccc(F)cc3)C[C@@]21C [Example 122, ethyl (2-fluoro-6-{2-[(4αS,5R)-1-(4-fluorophenyl)-5-hydroxy-4α-methyl-1,4,4α,5,6,7-hexahydrocyclopenta[f]indazol-5-yl]ethyl}phenyl)carbamate] | 5 to 100
COC(=O)Nc1c(F)cccc1CC[C@]1(O)CCC2=Cc3c(cnn3-c3ccc(F)cc3)C[C@@]21C [Example 123, methyl (2-fluoro-6-{2-[(4αS,5R)-1-(4-fluorophenyl)-5-hydroxy-4α-methyl-1,4,4α,5,6,7-hexahydrocyclopenta[f]indazol-5-yl]ethyl}phenyl)carbamate] | 5 to 100

Second part, the molecule after the results:

Emax [%] | SMILES
5 to 100 | COC(=O)Nc1ccc(F)cc1CC[C@]1(O)CCC2=Cc3c(cnn3-c3ccc(F)cc3)C[C@@]21C [Example 124, methyl (4-fluoro-6-{2-[(4αS,5R)-1-(4-fluorophenyl)-5-hydroxy-4α-methyl-1,4,4α,5,6,7-hexahydrocyclopenta[f]indazol-5-yl]ethyl}phenyl)carbamate]
5 to 100 | CCOC(=O)Nc1ccc(F)cc1CC[C@]1(O)CCC2=Cc3c(cnn3-c3ccc(F)cc3)C[C@@]21C [Example 125, ethyl (4-fluoro-2-{2-[(4αS,5R)-1-(4-fluorophenyl)-5-hydroxy-4α-methyl-1,4,4α,5,6,7-hexahydrocyclopenta[f]indazol-5-yl]ethyl}phenyl)carbamate]
5 to 100 | C[C@]12Cc3cnn(-c4ccc(F)cc4)c3C=C1CC[C@@]2(O)CCc1cccc(F)c1NC(=O)C(F)(F)F [Example 126, 2,2,2-trifluoro-N-(2-fluoro-6-{2-[(4αS,5R)-1-(4-fluorophenyl)-5-hydroxy-4α-methyl-1,4,4α,5,6,7-hexahydrocyclopenta[f]indazol-5-yl]ethyl}phenyl)acetamide]
5 to 100 | C[C@]12Cc3cnn(-c4ccc(F)cc4)c3C=C1CC[C@@]2(O)CCc1ccccc1NC(=O)C(F)(F)F [Example 127, 2,2,2-trifluoro-N-(2-{2-[(4αS,5R)-1-(4-fluorophenyl)-5-hydroxy-4α-methyl-1,4,4α,5,6,7-hexahydrocyclopenta[f]indazol-5-yl]ethyl}phenyl)acetamide]
5 to 100 | CC(=O)Nc1c(F)cccc1CC[C@]1(O)CCC2=Cc3c(cnn3-c3ccc(F)cc3)C[C@@]21C [Example 128, N-(2-fluoro-6-{2-[(4αS,5R)-1-(4-fluorophenyl)-5-hydroxy-4α-methyl-1,4,4α,5,6,7-hexahydrocyclopenta[f]indazol-5-yl]ethyl}phenyl)acetamide]
5 to 100 | CC(C)NC(=O)Nc1ccccc1CC[C@]1(O)CCC2=Cc3c(cnn3-c3ccc(F)cc3)C[C@@]21C [Example 129, N-(2-{2-[(4αS,5R)-1-(4-fluorophenyl)-5-hydroxy-4α-methyl-1,4,4α,5,6,7-hexahydrocyclopenta[f]indazol-5-yl]ethyl}phenyl)-N′-isopropylurea]
5 to 100 | CC(C)NC(=O)Nc1c(F)cccc1CC[C@]1(O)CCC2=Cc3c(cnn3-c3ccc(F)cc3)C[C@@]21C [Example 130, N-(2-fluoro-6-{2-[(4αS,5R)-1-(4-fluorophenyl)-5-hydroxy-4α-methyl-1,4,4α,5,6,7-hexahydrocyclopenta[f]indazol-5-yl]ethyl}phenyl)-N′-isopropylurea]
5 to 100 | CCNC(=O)Nc1ccc(F)cc1CC[C@]1(O)CCC2=Cc3c(cnn3-c3ccc(F)cc3)C[C@@]21C [Example 131, N-ethyl-N′-(4-fluoro-2-{2-[(4αS,5R)-1-(4-fluorophenyl)-5-hydroxy-4α-methyl-1,4,4α,5,6,7-hexahydrocyclopenta[f]indazol-5-yl]ethyl}phenyl)urea]
